Columns and labels:
[1] = molecular target: T1, human DLK (Homo sapiens (Human), UniProt Q12852); assay: cell-based; settings: Table 2b (global); additional assay runs on multiple batches, includes Table 2a data in the averaging; p-cJun (Ser63), HEK293; read-out: Cell IC50
Experimental: HEK293 cells stably transfected with a Dox-inducible human DLK were plated into a 384-well plate in 20 μl (40,000 cells/well) of DMEM medium (without phenol red) containing 10% fetal bovine serum, 1.5 μg/ml doxycycline and 1 μg/ml puromycin. The cells as negative control were grown in the absence of doxycycline. The plate was incubated at 37° C., 5% CO2 for 20 h, before DMSO (control) or compounds diluted in medium were added. The cells were incubated at 37° C. for an additional 5 h, followed by lysis and the addition detection antibodies from p-cJun (Ser63) cellular assay kit (Cisbio) per manufacturer protocol. The standard dose response curves were fitted by Genedata Screener software using the variable-slope model: Signal=Signalnegative control+(SignalDMSO control−Signalnegative control)/(1+(IC50/Dose)^Hill slope). Only signal and dose in the equation were treated as known values.

[2] = molecular target: T1, human DLK; assay: biochemical; type: binding; settings: Table 2b DLK activity (global); read-out: Kd
Experimental: The DLK dissociation constants (Kd) have been determined in the KINOMEscan KdELECT Service at DiscoveRx.
A fusion protein of full length of human DLK (amino acids 1-859) and the DNA binding domain of NFkB was expressed in transiently transfected HEK293 cells. From these HEK 293 cells, extracts were prepared in M-PER extraction buffer (Pierce) in the presence of Protease Inhibitor Cocktail Complete (Roche) and Phosphatase Inhibitor Cocktail Set II (Merck) per manufacturers' instructions. The DLK fusion protein was labeled with a chimeric double-stranded DNA tag containing the NFkB binding site (5′-[sequence]-3′) fused to an amplicon for qPCR readout, which was added directly to the expression extract (the final concentration of DNA-tag in the binding reaction is 0.1 nM).
The liganded beads were blocked with excess biotin and washed with blocking buffer (SeaBlock (Pierce), 1% BSA, 0.05% Tween 20, 1 mM DTT) to remove unbound ligand and to reduce nonspecific binding.
Extracts were used directly in binding assays without any enzyme purification steps at a ≥10,000-fold overall stock dilution (final DNA-tagged enzyme concentration <0.1 nM). Extracts were loaded with DNA-tag and diluted into the binding reaction in a two step process. First extracts were diluted 1:100 in 1× binding buffer (PBS/0.05% Tween 20/10 mM DTT/0.1% BSA/2 μg/ml sonicated salmon sperm DNA) containing 10 nM DNA-tag. This dilution was allowed to equilibrate at room temperature for 15 minutes and then subsequently diluted 1:100 in 1× binding buffer. Test compounds were prepared as 111× stocks in 100% DMSO. Kds were determined using an 11-point 3-fold compound dilution series with three DMSO control points. […] The compounds were then diluted directly into the assays such that the final concentration of DMSO was 0.9%. All reactions performed in polypropylene 384-well plates. Each was a final volume of 0.02 mL. Assays were incubated with shaking for 1 hour at room temperature. Then the beads were pelleted and washed with wash buffer (1×PBS, 0.05% Tween 20) to remove displaced kinase and test compound. […] The kinase concentration in the eluates was measured by qPCR. qPCR reactions were assembled by adding 2.5 μL of kinase eluate to 7.5 μL of qPCR master mix containing 0.15 μM amplicon primers and 0.15 μM amplicon probe. The qPCR protocol consisted of a 10 minute hot start at 95° C., followed by 35 cycles of 95° C. for 15 seconds, 60° C. for 1 minute.
Test compounds were prepared as 11× stocks in 100% DMSO. Kds were determined using an 11-point 3-fold compound dilution series with three DMSO control points. […] The compounds were then diluted directly into the assays such that the final concentration of DMSO was 0.9%. The Kds were determined using a compound top concentration of 30,000 nM. Kd measurements were performed in duplicate.
Binding constants (Kds) were calculated with a standard dose-response curve using the Hill equation:
The Hill Slope was set to −1.

SMILES | IC50 [1] [nM] | Kd [2] [nM]
C#CCN1CCN(C23CC(n4cc(-c5cnc(N)c(OC(F)(F)F)c5)nc4[C@@H](O)C(C)C)(C2)C3)CC1 (single isomer, unassigned) [Example 9a] | 20.2 | –
CC(C)c1nc(-c2cnc(N)c(OC(F)(F)F)c2)cn1C12CC(N3CCN(C)CC3)(C1)C2 [Example 74, 5-(2-isopropyl-1-(3-(4-methylpiperazin-1-yl)bicyclo[1.1.1]pentan-1-yl)-1H-imidazol-4-yl)-3-(trifluoromethoxy)pyridin-2-amine] | 196 | 4.5
Nc1ncc(-c2cn(C34CC(N5CCOCC5)(C3)C4)c(C3CCC3)n2)cc1OC(F)(F)F [Example 43, 5-(2-cyclobutyl-1-(3-morpholinobicyclo[1.1.1]pentan-1-yl)-1H-imidazol-4-yl)-3-(trifluoromethoxy)pyridin-2-amine] | 598 | 32
Nc1ncc(-c2cn(C34CC(C3)C4)c(C(O)C3CC3)n2)cc1OC(F)(F)F (stereo not drawn) [Example 56, (4-(6-amino-5-(trifluoromethoxy)pyridin-3-yl)-1-(bicyclo[1.1.1]pentan-1-yl)-1H-imidazol-2-yl)(cyclopropyl)methanol] | 275 | 5.1
Nc1ncc(-c2cn(C34CC(N5CCC(O)CC5)(C3)C4)c(C3CC3)n2)cc1OC(F)(F)F [Example 26, 1-(3-(4-(6-amino-5-(trifluoromethoxy)pyridin-3-yl)-2-cyclopropyl-1H-imidazol-1-yl)bicyclo[1.1.1]pentan-1-yl)piperidin-4-ol] | 383 | 7
Nc1ncc(-c2cn(C34CC(N5CCOCC5)(C3)C4)c(C=O)n2)cc1OC(F)(F)F [Example 66, 4-(6-amino-5-(trifluoromethoxy)pyridin-3-yl)-1-(3-morpholinobicyclo[1.1.1]pentan-1-yl)-1H-imidazole-2-carbaldehyde] | 1400 | 44
Nc1ncc(-c2cn(C34CC(N5CCOCC5)(C3)C4)c([C@@H](O)C(F)(F)F)n2)cc1OC(F)(F)F (single isomer, unassigned) [Example 8b] | 284 | –
FC(F)(F)c1c[nH]c2ncc(-c3cn(C45CC(N6CCOCC6)(C4)C5)c(C4CC4)n3)cc12 [Example 18, 4-(3-(2-cyclopropyl-4-(3-(trifluoromethyl)-1H-pyrrolo[2,3-b]pyridin-5-yl)-1H-imidazol-1-yl)bicyclo[1.1.1]pentan-1-yl)morpholine] | 155 | 1.9
CCC(C)c1nc(-c2cnc(N)c(OC(F)(F)F)c2)cn1C12CC(N3CCOCC3)(C1)C2 (stereo not drawn) [Example 49, 5-(2-(sec-butyl)-1-(3-morpholinobicyclo[1.1.1]pentan-1-yl)-1H-imidazol-4-yl)-3-(trifluoromethoxy)pyridin-2-amine] | 290 | 8.6
CC(C)Cc1nc(-c2cnc(N)c(C(F)(F)F)c2)cn1C12CC(N3CCOCC3)(C1)C2 [Example 47, 5-(2-isobutyl-1-(3-morpholinobicyclo[1.1.1]pentan-1-yl)-1H-imidazol-4-yl)-3-(trifluoromethyl)pyridin-2-amine] | 655 | 6
Nc1ncc(-c2cn(C34CC(C3)C4)c(C(O)C(F)(F)F)n2)cc1OC(F)(F)F (stereo not drawn) [Example 63b, 1-(4-(6-amino-5-(trifluoromethoxy)pyridin-3-yl)-1-(bicyclo[1.1.1]pentan-1-yl)-1H-imidazol-2-yl)-2,2,2-trifluoroethan-1-ol] | – | 1.6
Nc1ncc(-c2cn(C34CC(N5CCOCC5)(C3)C4)c(C(O)C(F)(F)F)n2)cc1C(F)(F)F (single isomer, unassigned) [Example 69b, 1-(4-(6-amino-5-(trifluoromethyl)pyridin-3-yl)-1-(3-morpholinobicyclo[1.1.1]pentan-1-yl)-1H-imidazol-2-yl)-2,2,2-trifluoroethan-1-ol] | 722 | –
CC(C)(C)Cc1nc(-c2cnc(N)c(OC(F)(F)F)c2)cn1C12CC(N3CCOCC3)(C1)C2 [Example 39, 5-(1-(3-morpholinobicyclo[1.1.1]pentan-1-yl)-2-neopentyl-1H-imidazol-4-yl)-3-(trifluoromethoxy)pyridin-2-amine] | 4040 | 210
Nc1ncc(-c2cn(C34CC(N5CCOCC5)(C3)C4)c(CC(F)(F)F)n2)cc1OC(F)(F)F [Example 48, 5-(1-(3-morpholinobicyclo[1.1.1]pentan-1-yl)-2-(2,2,2-trifluoroethyl)-1H-imidazol-4-yl)-3-(trifluoromethoxy)pyridin-2-amine] | 413 | 13
CN1CCN(C23CC(n4cc(-c5cnc(N)c(OC(F)(F)F)c5)nc4C4CC4)(C2)C3)C(=O)C1 [Example 23, 1-(3-(4-(6-amino-5-(trifluoromethoxy)pyridin-3-yl)-2-cyclopropyl-1H-imidazol-1-yl)bicyclo[1.1.1]pentan-1-yl)-4-methylpiperazin-2-one] | 471 | 17
CC(C)C(O)c1nc(-c2cnc(N)c(C(F)(F)F)c2)cn1C12CC(C1)C2 (stereo not drawn) [Example 59, 1-(4-(6-amino-5-(trifluoromethyl)pyridin-3-yl)-1-(bicyclo[1.1.1]pentan-1-yl)-1H-imidazol-2-yl)-2-methylpropan-1-ol] | 20.9 | 0.29
Nc1ncc(-c2cn(C34CC(C3)C4)c([C@H](O)C(F)(F)F)n2)cc1C(F)(F)F (single isomer, unassigned) [Example 6a] | 745 | –
Nc1ncc(-c2cn(C34CC(N5CCOCC5)(C3)C4)c(CC3CC3)n2)cc1OC(F)F [Example 36, 5-(2-(cyclopropylmethyl)-1-(3-morpholinobicyclo[1.1.1]pentan-1-yl)-1H-imidazol-4-yl)-3-(difluoromethoxy)pyridin-2-amine] | 500 | 22
Nc1ncc(-c2cn(C34CC(N5CCOCC5)(C3)C4)c(C3CC3)n2)cc1OC(F)F [Example 37, 5-(2-cyclopropyl-1-(3-morpholinobicyclo[1.1.1]pentan-1-yl)-1H-imidazol-4-yl)-3-(difluoromethoxy)pyridin-2-amine] | 351 | 19
CN1CCN(C23CC(n4cc(-c5cnc(N)c(OC(F)F)c5)nc4CC4CC4)(C2)C3)CC1 [Example 73, 5-(2-(cyclopropylmethyl)-1-(3-(4-methylpiperazin-1-yl)bicyclo[1.1.1]pentan-1-yl)-1H-imidazol-4-yl)-3-(difluoromethoxy)pyridin-2-amine] | 624 | 18
Nc1ncc(-c2cn(C34CC(N5CCS(=O)(=O)CC5)(C3)C4)c(C3CC3)n2)cc1OC(F)(F)F [Example 13, 4-(3-(4-(6-amino-5-(trifluoromethoxy)pyridin-3-yl)-2-cyclopropyl-1H-imidazol-1-yl)bicyclo[1.1.1]pentan-1-yl)thiomorpholine 1,1-dioxide] | 317 | 32
C#CCN1CCN(C23CC(n4cc(-c5cnc(N)c(OC(F)(F)F)c5)nc4[C@H](O)C(C)C)(C2)C3)CC1 (single isomer, unassigned) [Example 9b] | 684 | –
CCCN1CCN(C23CC(n4cc(-c5cnc(N)c(OC(F)(F)F)c5)nc4C(O)C(C)C)(C2)C3)CC1 (stereo not drawn) [Example 70, 1-(4-(6-amino-5-(trifluoromethoxy)pyridin-3-yl)-1-(3-(4-propylpiperazin-1-yl)bicyclo[1.1.1]pentan-1-yl)-1H-imidazol-2-yl)-2-methylpropan-1-ol] | 923 | –

— patent US10093664B2, “Bicyclo[1.1.1]pentane inhibitors of dual leucine zipper (DLK) kinase for the treatment of disease” (priority 2016, dated 2018)
